Measurements taken from PMC6280737, “Modification Targeting the “Rana Box” Motif of a Novel Nigrocin Peptide From Hylarana latouchii Enhances and Broadens Its Potency Against Multiple Bacteria” (Frontiers in Microbiology, 2018).
Where a SMILES comes first, the peptide text is derived from it.

Assays:
E. coli (NCTC10418) = type: cell-based, Escherichia coli; conditions: for MIC: NCTC10418, 16 h
Method: (§1) The antimicrobial activity of both natural and designed peptides was evaluated by MIC and MBC assays utilizing the broth dilution method. Microorganisms including S. aureus (NCTC10788), MRSA (NCTC 12493 and ATCC43300), Escherichia coli (E. coli) (NCTC 10418), Pseudomonas aeruginosa (P. aeruginosa) (ATCC 27853), Candida albicans (C. albicans) (NCYC 1467) and four clinical MRSA strains (DTMR8, DTMR24, DTMR37, and DTMR121) obtained at the First People’s Hospital of Zhenjiang, China were used. Molecular identification of these four clinical isolates was performed by PCR targeting mecA gene prior to use. After incubation of peptides (ranging from 1 μM to 512 μM, twofold serial dilution) and diluted microorganism cultures for 16 h, the absorbance values of the wells of the 96-well plates were detected at 550 nm with a Synergy HT plate reader (Biotech, United States) and the MICs were defined as the lowest concentration of peptides at which no apparent growth was detected. Ten microliters of culture in the wells were loaded onto Mueller-Hinton agar (MHA) medium and incubated at 37°C for another 18 h. The MBC of the peptide against a microbe was defined as the lowest concentration at which no evidence of colony growth was observed. Five replications were employed for all peptides with different concentrations and controls, and all measurements were made in triplicate.

S. aureus (NCTC10788) = type: cell-based, Staphylococcus aureus; conditions: for MIC: NCTC10788, 16 h; for MBC: NCTC10788, 18 h
Method: as §1

C. albicans (NCYC1467) = type: cell-based, Candida albicans; conditions: for MIC: NCYC1467, 16 h; for MBC: NCYC1467, 18 h
Method: as §1

[1] = test system: human bronchial epithelial cell line 16HBE; type: cell-based
Method: (§2) Human keratinocyte cell line HaCaT and human bronchial epithelial cell line 16HBE were obtained from the ATCC. Cells were harvested and diluted to 5 × 10^4 cells/ml using fresh medium. Ninety-nine microliters of diluted cells and 1 μl of peptides (final concentration ranging from 1 to 512 μM, twofold serial dilution, five duplicates) were mixed and seeded into 96-well culture plates. After incubation for 24 h, 10 μl CCK-8 was added into each well, followed by incubation at 37°C for 2 h. Absorbance of each well was determined, and the viabilities of cells were calculated as percentages of the control.
(§3) FIGURE 5 Toxicities of nigrocin-HL and its analog nigrocin-HLM in vitro and in vivo. Cytotoxicity of nigrocin-HL and nigrocin-HLM against (A) HaCaT and (B) 16HBE. Living cells after treatment with peptides were measured utilizing CCK8 assays, and viability was calculated relative to the untreated control. (C) Hemolysis of nigrocin-HL and nigrocin-HLM was determined against horse erythrocytes. All data represent mean ± SD from three independent experiments performed in triplicate (^∗P < 0.05, ^∗∗∗P < 0.001, compared with nigrocin-HL control group; ^###P < 0.001, compared with nigrocin-HLM control group). (D) In vivo toxicities of these two AMPs. Survival rate of mice in 7 days after single i.p. injection of nigrocin-HL and nigrocin-HLM (20 and 40 mg/kg) was recorded.

[2] = test system: human keratinocyte cell line HaCaT; type: cell-based
Method: as §2, §3

[3] = test system: clinical MRSA strain DTMR8; type: cell-based, methicillin-resistant S. aureus
Method: as §1

[4] = test system: clinical MRSA strain DTMR121; type: cell-based, methicillin-resistant S. aureus
Method: as §1

[5] = test system: clinical MRSA strain DTMR24; type: cell-based, methicillin-resistant S. aureus
Method: as §1

MRSA (ATCC43300) = type: cell-based, methicillin-resistant S. aureus
Method: as §1

MRSA (NCTC12493) = type: cell-based, methicillin-resistant S. aureus; conditions: NCTC12493, 16 h
Method: as §1

[6] = test system: clinical MRSA strain DTMR37; type: cell-based, methicillin-resistant S. aureus
Method: as §1

horse erythrocytes = type: cell-based
Method: Hemolytic property of peptides was measured using erythrocytes prepared from defibrinated horse blood (TCS Biosciences, Botolph Claydon, Buckingham, United Kingdom) as indicated previously ([Wu et al., 2016]).
as §3

BALB/c mice = assay: In vivo acute toxicity, 7-day mortality; conditions: single i.p. injection
Method: Mice were administered with 20.0 and 40 mg/kg of nigrocin-HL and nigrocin-HLM (i.p.) and a 7-day mortality was recorded.
as §3

mature MRSA biofilm = type: cell-based, methicillin-resistant S. aureus
Method: Minimum biofilm eradication concentration (MBEC) assay was carried out with a modified microtiter plate method as described previously ([Gao et al., 2017]).
FIGURE 4 Minimum biofilm eradication concentration (MBEC) of peptides against mature MRSA biofilm. All data represent means ± SD from three independent experiments performed in triplicate (^∗∗∗∗P < 0.0001 versus the viability of the corresponding concentration of nigrocin-HL).

[7] = test system: P. aeruginosa (ATCC27853); type: cell-based, Pseudomonas aeruginosa
Method: as §1

[8] = Circular dichroism, percentage of α-helix by K2D3; type: physicochemical; conditions: CD 190-250 nm, 20°C, 50% TFE in 10 mM ammonium acetate buffer, 100 μM peptide (legend: 50 μM)
Method: Additionally, circular dichroism (CD) analyses were carried out utilizing a JASCO J815 Spectropolarimeter (JASCO Inc., United States). Samples were measured within the range of 190-250 nm at 20°C. The parameters were set as: 200 nm/min scanning speed, a bandwidth of 1 nm, and 0.5 nm data pitch. Both peptide samples were dissolved in […] ammonium acetate buffer and 50% TFE in 10 mM ammonium acetate buffer at a concentration of 100 μM. The percentage of the α-helix structure was predicted by the website […]^2 ([Louis-Jeune et al., 2012]).

Structure (SMILES) | MIC (E. coli (NCTC10418)) | MIC (S. aureus (NCTC10788)) | MBC (S. aureus (NCTC10788)) | MIC (C. albicans (NCYC1467)) | MBC (C. albicans (NCYC1467)) | lowest dosage at which cell growth inhibition occurred [1] | lowest dosage at which cell growth inhibition occurred [2] | hemolytic activity (in words) (horse erythrocytes) | 7-day mortality (BALB/c mice; 20 mg/kg) | 7-day mortality (BALB/c mice; 40 mg/kg) | MBEC (mature MRSA biofilm) | other results
CC[C@H](C)[C@H](NC(=O)CNC(=O)[C@H](CO)NC(=O)[C@H](CC(C)C)NC(=O)[C@H](CC(C)C)NC(=O)CN)C(=O)N[C@@H](CC(C)C)C(=O)NCC(=O)N[C@@H](C)C(=O)NCC(=O)N[C@@H](CCCCN)C(=O)N[C@@H](CCCCN)C(=O)N[C@H](C(=O)N[C@H](C(=O)O)C(C)C)[C@@H](C)CC [Nigrocin-HLD] (H-GLLSGILGAGKKIV-OH; N-terminus and C-terminus assumed) | 84.87 µg/mL | 42.43 µg/mL | 169.73 µg/mL | 42.43 µg/mL | 339.46 µg/mL | – | – | – | – | – | – | –
CC[C@H](C)[C@H](NC(=O)CNC(=O)[C@H](CO)NC(=O)[C@H](CC(C)C)NC(=O)[C@H](CC(C)C)NC(=O)CN)C(=O)N[C@@H](CC(C)C)C(=O)NCC(=O)N[C@@H](C)C(=O)NCC(=O)N[C@@H](CCCCN)C(=O)N[C@@H](CCCCN)C(=O)N[C@H](C(=O)N[C@H](C(=O)N[C@@H](Cc1ccccc1)C(N)=O)C(C)C)[C@@H](C)CC [Nigrocin-HLM] (H-GLLSGILGAGKKIVF-NH2) | 11.77 µg/mL | 2.94 µg/mL | 5.89 µg/mL | 2.94 µg/mL | 5.89 µg/mL | > 512 µM | > 512 µM | negligible hemolytic activity | no mortality was observed | no mortality was observed | 8 µM | MIC ([3]; clinical strain DTMR8, 16 h): 1 µM; MBC ([3]; clinical strain DTMR8, 18 h): 2.94 µg/mL; MIC ([4]; clinical strain DTMR121, 16 h): 1 µM; MBC ([4]; clinical strain DTMR121, 18 h): 1.47/1.47 mg/l; MIC ([5]; clinical strain DTMR24, 16 h): 1 µM; MBC ([5]; clinical strain DTMR24, 18 h): 1.47/1.47 mg/l; MIC (MRSA (ATCC43300); ATCC43300, 16 h): 1 µM; MBC (MRSA (ATCC43300); ATCC43300, 18 h): 5.89 µg/mL; MIC (MRSA (NCTC12493)): 4 µM; MIC ([6]; clinical strain DTMR37, 16 h): 1 µM; MBC ([6]; clinical strain DTMR37, 18 h): 2.94 µg/mL; MBC (E. coli (NCTC10418); NCTC10418, 18 h): 23.55 µg/mL; concentration up to which devoid of hemolytic activity (horse erythrocytes): > 128 µM; MIC ([7]; ATCC27853, 16 h): 32 µM; MBC ([7]; ATCC27853, 18 h): 32 µM
CC[C@H](C)[C@H](NC(=O)CNC(=O)[C@H](CO)NC(=O)[C@H](CC(C)C)NC(=O)[C@H](CC(C)C)NC(=O)CN)C(=O)N[C@@H](CC(C)C)C(=O)NCC(=O)N[C@@H](C)C(=O)NCC(=O)N[C@@H](CCCCN)C(=O)N[C@@H](CCCCN)C(=O)N[C@H](C(=O)N[C@H](C(=O)N[C@H]1CSSC[C@@H](C(=O)O)NC(=O)[C@H](CC(C)C)NC(=O)CNC(=O)[C@H](CO)NC(=O)[C@H](CC(C)C)NC(=O)CNC1=O)C(C)C)[C@@H](C)CC [Nigrocin-HL] (HELM PEPTIDE1{G.L.L.S.G.I.L.G.A.G.K.K.I.V.C.G.L.S.G.L.C}$PEPTIDE1,PEPTIDE1,15:R3-21:R3$$$V2.0; N-terminus and C-terminus assumed) | 125.40 µg/mL | 62.70 µg/mL | 250.81 µg/mL | 62.70 µg/mL | 501.61 µg/mL | 32 µM | 32 µM | obvious hemolysis | mice all died from day 3 to day 7 | mice all died from day 3 to day 7 | > 16 µM | Helicity (%) [8]: 31.28%
